Organism: Rattus norvegicus
Assay: DrugMatrix - Regimen: Daily Repeat
Type: toxicity, organism-based, Sprague-Dawley
Design: regimen Daily Repeat, gender Male, age 6-8 weeks
Conditions: in vivo, po, route oral GAVAGE, […]; for ABSOLUTE BASOPHIL / ABSOLUTE EOSINOPHIL / ABSOLUTE LYMPHOCYTE / ABSOLUTE MONOCYTE / ABSOLUTE SEGMENTED NEUTROPHIL / BASOPHIL / EOSINOPHIL / ERYTHROCYTE COUNT / HEMATOCRIT / HEMOGLOBIN / LEUKOCYTE COUNT / LYMPHOCYTE / MEAN CORPUSCULAR HEMOGLOBIN / MEAN CORPUSCULAR HEMOGLOBIN CONCENTRATION / MEAN CORPUSCULAR VOLUME / MONOCYTE / NEUTROPHIL / NUCLEATED RED BLOOD CELLS / PLATELET COUNT: tissue Blood; for ALANINE AMINOTRANSFERASE / ALBUMIN / ALKALINE PHOSPHATASE / ASPARTATE AMINOTRANSFERASE / BLOOD UREA NITROGEN / CARBON DIOXIDE / CHLORIDE / CHOLESTEROL / CREATINE PHOSPHOKINASE / CREATININE / GLUCOSE / LACTATE DEHYDROGENASE / LIPASE / PHOSPHORUS / POTASSIUM / SODIUM / TOTAL BILIRUBIN / TOTAL PROTEIN / URIC ACID: tissue Plasma
[1] = 100 mg/kg, 120 h, dose level Low, time 5 day
[2] = 972 mg/kg, 72 h, dose level High, time 3 day
[3] = 972 mg/kg, 120 h, dose level High, time 5 day

CC(=O)Nc1ccc(O)cc1 [ACETAMINOPHEN]
ABSOLUTE BASOPHIL [1]: 0 CELLS/uL | ABSOLUTE EOSINOPHIL [1]: 65 CELLS/uL | ABSOLUTE LYMPHOCYTE [1]: 8879.67 CELLS/uL | ABSOLUTE MONOCYTE [1]: 40.33 CELLS/uL | ABSOLUTE SEGMENTED NEUTROPHIL [1]: 548.33 CELLS/uL | BASOPHIL [1]: 0% | EOSINOPHIL [1]: 0.67% | ERYTHROCYTE COUNT [1]: 5.47 x10E6/uL | HEMATOCRIT [1]: 34.53% | HEMOGLOBIN [1]: 13.27 G/DL | LEUKOCYTE COUNT [1]: 9.53 x10E3/uL | LYMPHOCYTE [1]: 93.67% | MEAN CORPUSCULAR HEMOGLOBIN [1]: 24.27 pg | MEAN CORPUSCULAR HEMOGLOBIN CONCENTRATION [1]: 38.43 G/DL | MEAN CORPUSCULAR VOLUME [1]: 63.13 fL | MONOCYTE [1]: 0.33% | NEUTROPHIL [1]: 5.33% | NUCLEATED RED BLOOD CELLS [1]: 0 /100WBC | PLATELET COUNT [1]: 1237.33 x10E3/uL | ALANINE AMINOTRANSFERASE [1]: 58.33 u/L | ALBUMIN [1]: 4.3 G/DL | ALKALINE PHOSPHATASE [1]: 341.67 u/L | ASPARTATE AMINOTRANSFERASE [1]: 84 u/L | BLOOD UREA NITROGEN [1]: 14 mg/dL | CARBON DIOXIDE [1]: 27.33 mmol/L | CHLORIDE [1]: 98.33 MEQ/L | CHOLESTEROL [1]: 81.33 mg/dL | CREATINE PHOSPHOKINASE [1]: 273 u/L | CREATININE [1]: 0.18 mg/dL | GLUCOSE [1]: 158.67 mg/dL | LACTATE DEHYDROGENASE [1]: 79.67 u/L | LIPASE [1]: 10 u/L | PHOSPHORUS [1]: 9.17 mg/dL | POTASSIUM [1]: 5.75 MEQ/L | SODIUM [1]: 143.87 MEQ/L | TOTAL BILIRUBIN [1]: 0.23 mg/dL | TOTAL PROTEIN [1]: 6.27 G/DL | URIC ACID [1]: 0.77 mg/dL | ABSOLUTE BASOPHIL [2]: 0 CELLS/uL | ABSOLUTE EOSINOPHIL [2]: 0 CELLS/uL | ABSOLUTE LYMPHOCYTE [2]: 8609 CELLS/uL | ABSOLUTE MONOCYTE [2]: 158.2 CELLS/uL | ABSOLUTE SEGMENTED NEUTROPHIL [2]: 1212.8 CELLS/uL | BASOPHIL [2]: 0% | EOSINOPHIL [2]: 0% | ERYTHROCYTE COUNT [2]: 5.94 x10E6/uL | HEMATOCRIT [2]: 36.4% | HEMOGLOBIN [2]: 13.62 G/DL | LEUKOCYTE COUNT [2]: 9.98 x10E3/uL | LYMPHOCYTE [2]: 85.6% | MEAN CORPUSCULAR HEMOGLOBIN [2]: 22.9 pg | MEAN CORPUSCULAR HEMOGLOBIN CONCENTRATION [2]: 37.44 G/DL | MEAN CORPUSCULAR VOLUME [2]: 61.28 fL | MONOCYTE [2]: 2% | NEUTROPHIL [2]: 12.4% | NUCLEATED RED BLOOD CELLS [2]: 0 /100WBC | PLATELET COUNT [2]: 1006.4 x10E3/uL | ALANINE AMINOTRANSFERASE [2]: 85 u/L | ALBUMIN [2]: 4.4 G/DL | ALKALINE PHOSPHATASE [2]: 536.6 u/L | ASPARTATE AMINOTRANSFERASE [2]: 123.8 u/L | BLOOD UREA NITROGEN [2]: 14 mg/dL | CARBON DIOXIDE [2]: 31.2 mmol/L | CHLORIDE [2]: 99.67 MEQ/L | CHOLESTEROL [2]: 76.2 mg/dL | CREATINE PHOSPHOKINASE [2]: 298.8 u/L | CREATININE [2]: 0.19 mg/dL | GLUCOSE [2]: 161 mg/dL | LACTATE DEHYDROGENASE [2]: 128 u/L | LIPASE [2]: 10.8 u/L | PHOSPHORUS [2]: 10.82 mg/dL | POTASSIUM [2]: 5.81 MEQ/L | SODIUM [2]: 143.6 MEQ/L | TOTAL BILIRUBIN [2]: 0.14 mg/dL | TOTAL PROTEIN [2]: 6.04 G/DL | URIC ACID [2]: 0.68 mg/dL | ABSOLUTE BASOPHIL [3]: 0 CELLS/uL | ABSOLUTE EOSINOPHIL [3]: 17.8 CELLS/uL | ABSOLUTE LYMPHOCYTE [3]: 10212.2 CELLS/uL | ABSOLUTE MONOCYTE [3]: 135.4 CELLS/uL | ABSOLUTE SEGMENTED NEUTROPHIL [3]: 1674.6 CELLS/uL | BASOPHIL [3]: 0% | EOSINOPHIL [3]: 0.2% | ERYTHROCYTE COUNT [3]: 6.63 x10E6/uL | HEMATOCRIT [3]: 40.4% | HEMOGLOBIN [3]: 14.86 G/DL | LEUKOCYTE COUNT [3]: 12.04 x10E3/uL | LYMPHOCYTE [3]: 85.2% | MEAN CORPUSCULAR HEMOGLOBIN [3]: 22.46 pg | MEAN CORPUSCULAR HEMOGLOBIN CONCENTRATION [3]: 36.82 G/DL | MEAN CORPUSCULAR VOLUME [3]: 61 fL | MONOCYTE [3]: 1.2% | NEUTROPHIL [3]: 13.4% | NUCLEATED RED BLOOD CELLS [3]: 0 /100WBC | PLATELET COUNT [3]: 1437.6 x10E3/uL | ALANINE AMINOTRANSFERASE [3]: 100 u/L | ALBUMIN [3]: 4.46 G/DL | ALKALINE PHOSPHATASE [3]: 485.6 u/L | ASPARTATE AMINOTRANSFERASE [3]: 108.4 u/L | BLOOD UREA NITROGEN [3]: 14.2 mg/dL | CARBON DIOXIDE [3]: 29 mmol/L | CHLORIDE [3]: 104 MEQ/L | CHOLESTEROL [3]: 71.6 mg/dL | CREATINE PHOSPHOKINASE [3]: 328.8 u/L | CREATININE [3]: 0.17 mg/dL | GLUCOSE [3]: 154 mg/dL | LACTATE DEHYDROGENASE [3]: 199.2 u/L | LIPASE [3]: 9.8 u/L | PHOSPHORUS [3]: 13.5 mg/dL | POTASSIUM [3]: 6.73 MEQ/L | SODIUM [3]: 144.74 MEQ/L | TOTAL BILIRUBIN [3]: 0.22 mg/dL | TOTAL PROTEIN [3]: 6.42 G/DL | URIC ACID [3]: 3.3 mg/dL

Reference: ChEMBL document CHEMBL3885881, “DrugMatrix”
